Assays:
Assay type in all cases: physicochemical
[1] = In vitro release of salmon calcitonin from microspheres; conditions: in the phosphate buffer, pH 7.4, 37° C.
Method: Twenty mg of PGA-salmon calcitonin microspheres were loaded into a test tube. Ten ml of a 0.1M phosphate buffer, pH 7.4, containing EDTA were added and the tubes transferred to a 37° C. water bath. Nineteen μg salmon calcitonin/mg microspheres were released initially as a burst. This initial release was followed by a fast release of 50% of the total drug in less than two hours. At this point, a slow release followed and 22 μg salmon calcitonin/mg microspheres (22% of total drug) was released in the following 29 hours.

[2] = Molecular interaction of salmon calcitonin with poly(glycolic-Co-lactic acid); conditions: for CALCITONIN CONC.: supernatant
Method: (§1) Approximately five mg of calcitonin were quantitatively weighed and placed in each of a series of 5 ml volumetric flasks. Hexafluoroacetone sesquihydrate (HFA) was added dropwise until the calcitonin dissolved completely. A 5% PGA in HFA solution was quantitatively added dropwise to each flask to provide a mass of PGA covering the range of 0 to 26.3 mg. The flasks were agitated for 5 minutes to mix the solution. Each flask was then filled to the 5 ml mark with phosphate buffer (pH 7.3). The addition of buffer precipitated the PGA plus any calcitonin that had bound with the polymer. The resulting mixture was centrifuged and the supernatant was analyzed spectrophotometrically for salmon calcitonin content. 26 mg of PGA (40,000 Mw) removed approximately 4.1 mg (83%) of salmon calcitonin.
The procedure of preparing the poly(glycolic-Co-lactic acid) (PGL) having a molecular weight of 50,000 microspheres was similar to that used for PGA, except the hexafluoro-2-propanol was substituted for HFA. Above 8 mg of PGL over 80% of salmon calcitonin was removed.

[3] = Molecular interaction of salmon calcitonin with polylactic acid; conditions: for CALCITONIN CONC.: supernatant
Method: as §1
The procedure for preparing the polylactic acid (PLA), dl-type having a molecular weight of 50,000, was similar to that used for PGA, except that methylene chloride was substituted for HFA and the calcitonin was suspended rather than dissolved in the methylene chloride. In addition, since methylene chloride and buffer are not miscible, salmon calcitonin was extracted from methylene chloride in buffer. The aqueous phase was separated, centrifuged and the supernatant was analyzed spectrophotometrically for salmon calcitonin.

[4] = Molecular interaction of salmon calcitonin with polyglycolic acid (co-precipitation, supernatant assay); conditions: for CALCITONIN CONC.: supernatant
Method: The present example was intended to quantify chemical and/or physical association between salmon calcitonin and polyglycolic acid (PGA) having a molecular weight of 40,000 Daltons.
as §1

- time salmon calcitonin remains stable [1]: about 35 hours
- % CALCITONIN REMOVED ([2]; PGL mass 0.00 mg): 11.1%
- CALCITONIN REMOVED ([2]; PGL mass 0.00 mg): 0.591 mg
- % CALCITONIN REMOVED ([2]; PGL mass 2.64 mg): 19.9%
- CALCITONIN REMOVED ([2]; PGL mass 2.64 mg): 0.995 mg
- % CALCITONIN REMOVED ([2]; PGL mass 4.13 mg): 43.9%
- CALCITONIN REMOVED ([2]; PGL mass 4.13 mg): 2.15 mg
- % CALCITONIN REMOVED ([2]; PGL mass 5.52 mg): 51.8%
- CALCITONIN REMOVED ([2]; PGL mass 5.52 mg): 2.69 mg
- % CALCITONIN REMOVED ([2]; PGL mass 6.51 mg): 59.8%
- CALCITONIN REMOVED ([2]; PGL mass 6.51 mg): 2.87 mg
- % CALCITONIN REMOVED ([2]; PGL mass 8.45 mg): 80.8%
- CALCITONIN REMOVED ([2]; PGL mass 8.45 mg): 3.64 mg
- % CALCITONIN REMOVED ([2]; PGL mass 11.53 mg): 87.5%
- CALCITONIN REMOVED ([2]; PGL mass 11.53 mg): 4.37 mg
- % CALCITONIN REMOVED ([2]; PGL mass 13.57 mg): 92.5%
- CALCITONIN REMOVED ([2]; PGL mass 13.57 mg): 4.44 mg
- % CALCITONIN REMOVED ([2]; PGL mass 20.97 mg): 91.6%
- CALCITONIN REMOVED ([2]; PGL mass 20.97 mg): 4.95 mg
- salmon calcitonin removed (percent) ([2]; above 8 mg of PGL): over 80%
- CALCITONIN CONC. ([2]; PGL mass 0.00 mg): 0.941 mg/mL
- CALCITONIN CONC. ([2]; PGL mass 2.64 mg): 0.801 mg/mL
- CALCITONIN CONC. ([2]; PGL mass 4.13 mg): 0.550 mg/mL
- CALCITONIN CONC. ([2]; PGL mass 5.52 mg): 0.501 mg/mL
- CALCITONIN CONC. ([2]; PGL mass 6.51 mg): 0.386 mg/mL
- CALCITONIN CONC. ([2]; PGL mass 8.45 mg): 0.172 mg/mL
- CALCITONIN CONC. ([2]; PGL mass 11.53 mg): 0.125 mg/mL
- CALCITONIN CONC. ([2]; PGL mass 13.57 mg): 0.0725 mg/mL
- CALCITONIN CONC. ([2]; PGL mass 20.97 mg): 0.0908 mg/mL
- % CALCITONIN REMOVED ([3]; PLA mass 0.00 mg): 1.03%
- CALCITONIN REMOVED ([3]; PLA mass 0.00 mg): 0.055 mg
- % CALCITONIN REMOVED ([3]; PLA mass 2.68 mg): 40.8%
- CALCITONIN REMOVED ([3]; PLA mass 2.68 mg): 2.04 mg
- % CALCITONIN REMOVED ([3]; PLA mass 4.81 mg): 47.2%
- CALCITONIN REMOVED ([3]; PLA mass 4.81 mg): 2.36 mg
- % CALCITONIN REMOVED ([3]; PLA mass 10.28 mg): 55.4%
- CALCITONIN REMOVED ([3]; PLA mass 10.28 mg): 2.77 mg
- % CALCITONIN REMOVED ([3]; PLA mass 14.95 mg): 72.4%
- CALCITONIN REMOVED ([3]; PLA mass 14.95 mg): 3.62 mg
- % CALCITONIN REMOVED ([3]; PLA mass 20.40 mg): 60.3%
- CALCITONIN REMOVED ([3]; PLA mass 20.40 mg): 3.02 mg
- CALCITONIN CONC. ([3]; PLA mass 0.00 mg): 1.05 mg/mL
- CALCITONIN CONC. ([3]; PLA mass 2.68 mg): 0.592 mg/mL
- CALCITONIN CONC. ([3]; PLA mass 4.81 mg): 0.488 mg/mL
- CALCITONIN CONC. ([3]; PLA mass 10.28 mg): 0.386 mg/mL
- CALCITONIN CONC. ([3]; PLA mass 14.95 mg): 0.276 mg/mL
- CALCITONIN CONC. ([3]; PLA mass 20.40 mg): 0.417 mg/mL
- salmon calcitonin removed ([4]; 26 mg of PGA (40,000 Mw)): approximately 4.1 mg
- salmon calcitonin removed (percent) ([4]; 26 mg of PGA (40,000 Mw)): ~83%
- % CALCITONIN REMOVED ([4]; PGA mass 0.00 mg): 1.90%
- CALCITONIN REMOVED ([4]; PGA mass 0.00 mg): 0.099 mg
- % CALCITONIN REMOVED ([4]; PGA mass 5.73 mg): 2.71%
- CALCITONIN REMOVED ([4]; PGA mass 5.73 mg): 0.125 mg
- % CALCITONIN REMOVED ([4]; PGA mass 7.81 mg): 22.3%
- CALCITONIN REMOVED ([4]; PGA mass 7.81 mg): 1.07 mg
- % CALCITONIN REMOVED ([4]; PGA mass 7.89 mg): 6.80%
- CALCITONIN REMOVED ([4]; PGA mass 7.89 mg): 0.340 mg
- % CALCITONIN REMOVED ([4]; PGA mass 10.4 mg): 54.0%
- CALCITONIN REMOVED ([4]; PGA mass 10.4 mg): 2.54 mg
- % CALCITONIN REMOVED ([4]; PGA mass 11.8 mg): 38.0%
- CALCITONIN REMOVED ([4]; PGA mass 11.8 mg): 1.71 mg
- % CALCITONIN REMOVED ([4]; PGA mass 13.2 mg): 32.7%
- CALCITONIN REMOVED ([4]; PGA mass 13.2 mg): 1.64 mg
- % CALCITONIN REMOVED ([4]; PGA mass 14.0 mg): 41.2%
- CALCITONIN REMOVED ([4]; PGA mass 14.0 mg): 2.02 mg
- % CALCITONIN REMOVED ([4]; PGA mass 15.8 mg): 53.7%
- CALCITONIN REMOVED ([4]; PGA mass 15.8 mg): 2.69 mg
- % CALCITONIN REMOVED ([4]; PGA mass 18.4 mg): 77.4%
- CALCITONIN REMOVED ([4]; PGA mass 18.4 mg): 3.87 mg
- % CALCITONIN REMOVED ([4]; PGA mass 21.0 mg): 82.1%
- CALCITONIN REMOVED ([4]; PGA mass 21.0 mg): 4.10 mg
- % CALCITONIN REMOVED ([4]; PGA mass 22.3 mg): 58.6%
- CALCITONIN REMOVED ([4]; PGA mass 22.3 mg): 2.95 mg
- % CALCITONIN REMOVED ([4]; PGA mass 23.7 mg): 72.4%
- CALCITONIN REMOVED ([4]; PGA mass 23.7 mg): 3.62 mg
- % CALCITONIN REMOVED ([4]; PGA mass 26.3 mg): 82.6%
- CALCITONIN REMOVED ([4]; PGA mass 26.3 mg): 4.13 mg
- CALCITONIN CONC. ([4]; PGA mass 0.00 mg): 1.020 mg/mL
- CALCITONIN CONC. ([4]; PGA mass 5.73 mg): 0.895 mg/mL
- CALCITONIN CONC. ([4]; PGA mass 7.81 mg): 0.746 mg/mL
- CALCITONIN CONC. ([4]; PGA mass 7.89 mg): 0.932 mg/mL
- CALCITONIN CONC. ([4]; PGA mass 10.4 mg): 0.432 mg/mL
- CALCITONIN CONC. ([4]; PGA mass 11.8 mg): 0.558 mg/mL
- CALCITONIN CONC. ([4]; PGA mass 13.2 mg): 0.673 mg/mL
- CALCITONIN CONC. ([4]; PGA mass 14.0 mg): 0.576 mg/mL
- CALCITONIN CONC. ([4]; PGA mass 15.8 mg): 0.461 mg/mL
- CALCITONIN CONC. ([4]; PGA mass 18.4 mg): 0.226 mg/mL
- CALCITONIN CONC. ([4]; PGA mass 21.0 mg): 0.175 mg/mL
- CALCITONIN CONC. ([4]; PGA mass 22.3 mg): 0.422 mg/mL
- CALCITONIN CONC. ([4]; PGA mass 23.7 mg): 0.276 mg/mL
- CALCITONIN CONC. ([4]; PGA mass 26.3 mg): 0.174 mg/mL
Substance: salmon calcitonin

— patent US20020051808A1, “Drug delivery system involving interaction between protein or polypeptide and hydrophobic biodegradable polymer” (priority 1995, published 2002)
